Changes are numbered by the printed parent chain. Blank lines part the entries; values can stand above or below the molecule they belong to. Calls of active or inactive are those of the source. The calls are words filed in the database; no cut-off is given here.
Experiments:
Pseudomonas aeruginosa [1] = assay: Inhibition of Pseudomonas aeruginosa PqsD assessed as HHQ formation at 50 uM incubated 30 mins prior to substrate addition
[2] = Inhibition of Pseudomonas aeruginosa PqsD using ACoA/beta-ketodecanoic acid as substrate assessed as HHQ formation incubated for 10 mins prior to ACoA/beta-ketodecanoic acid addition measured for 40 mins
[3] = Inhibition of Pseudomonas aeruginosa PqsD using ACoA/beta-ketodecanoic acid as substrate assessed as HHQ formation incubated for 30 mins prior to ACoA addition followed by 10 mins after treated with beta-ketodecanoic acid measured for 40 mins
Pseudomonas aeruginosa [4] = assay: Binding affinity to Pseudomonas aeruginosa wild-type PqsD by NMR spectroscopy analysis
Pseudomonas aeruginosa [5] = assay: Binding affinity to Pseudomonas aeruginosa wild-type PqsD expressed in Escherichia coli BL21 (lambdaDE3) cells by surface plasmon resonance analysis
Pseudomonas aeruginosa [6] = assay: Binding affinity to Pseudomonas aeruginosa PqsD at 20 uM by surface plasmon resonance analysis in presence of ACoA
[7] = system: T1, 2-heptyl-4(1H)-quinolone synthase PqsD (Pseudomonas aeruginosa), A0A0C7ACN7 [H258F]; assay: Binding affinity to Pseudomonas aeruginosa PqsD H257F mutant expressed in Escherichia coli BL21 (lambdaDE3) cells by surface plasmon resonance analysis
T1 sequence (whole entry): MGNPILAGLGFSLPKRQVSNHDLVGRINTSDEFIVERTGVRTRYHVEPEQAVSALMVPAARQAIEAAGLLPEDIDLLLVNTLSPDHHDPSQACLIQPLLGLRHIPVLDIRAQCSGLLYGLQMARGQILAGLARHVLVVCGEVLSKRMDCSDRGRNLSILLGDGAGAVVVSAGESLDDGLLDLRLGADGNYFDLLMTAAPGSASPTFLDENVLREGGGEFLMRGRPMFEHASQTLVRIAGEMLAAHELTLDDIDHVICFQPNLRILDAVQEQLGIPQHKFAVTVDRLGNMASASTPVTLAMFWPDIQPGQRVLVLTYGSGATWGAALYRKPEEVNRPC

Pseudomonas aeruginosa [8] = assay: Binding affinity to Pseudomonas aeruginosa PqsD at 20 uM by surface plasmon resonance analysis in absence of ACoA
[9] = system: T2, 2-heptyl-4(1H)-quinolone synthase PqsD (Pseudomonas aeruginosa), A0A0C7ACN7 [C113A]; assay: Binding affinity to Pseudomonas aeruginosa PqsD C112A mutant expressed in Escherichia coli BL21 (lambdaDE3) cells by surface plasmon resonance analysis
T2 sequence (whole entry): T1 sequence (whole entry) with C113A, F258H

[10] = system: T3, 2-heptyl-4(1H)-quinolone synthase PqsD (Pseudomonas aeruginosa), A0A0C7ACN7 [S318F]; assay: Binding affinity to Pseudomonas aeruginosa PqsD S317F mutant expressed in Escherichia coli BL21 (lambdaDE3) cells by surface plasmon resonance analysis
T3 sequence (whole entry): T1 sequence (whole entry) with F258H, S318F

Pseudomonas aeruginosa [11] = assay: Binding affinity to Pseudomonas aeruginosa PqsD at 100 uM by surface plasmon resonance analysis in presence of ACoA
[12] = Binding affinity to Pseudomonas aeruginosa wild-type PqsD by isothermal titration calorimetry
Pseudomonas aeruginosa [13] = assay: Binding affinity to Pseudomonas aeruginosa PqsD at 20 uM incubated prior to ACoA addition by surface plasmon resonance analysis in presence of ACoA

SMILES: O=C(Nc1ccccc1C(=O)O)c1cccc(S(=O)(=O)N2CCOCC2)c1
- inhibition (Pseudomonas aeruginosa [1]): 16%

SMILES: CCN(CC)S(=O)(=O)c1cccc(C(=O)Nc2cccc(F)c2C(=O)O)c1
- IC50 [2]: 24.9 µM

SMILES: CCN(CC)C(=O)c1cccc(C(=O)Nc2ccc(Br)cc2C(=O)O)c1
- IC50 [2]: 25.5 µM

SMILES: CCN(CC)S(=O)(=O)c1cccc(C(=O)Nc2ccc(Br)cc2C(=O)O)c1
- Activity (Pseudomonas aeruginosa [5]): Active
- Activity (Pseudomonas aeruginosa [6]): Active
- Activity [7]: Active
- Activity (Pseudomonas aeruginosa [8]): Active
- Activity [9]: Active
- IC50 [2]: 9.9 µM
- Activity [10]: Active
- IC50 [3]: 7 µM

SMILES: CCN(CC)S(=O)(=O)c1cc(C(=O)Nc2ccc(Br)cc2C(=O)O)ccc1Br
- IC50 [2]: 3.8 µM

SMILES: Cc1ccc(S(=O)(=O)c2cc(O)c3ccccc3c2O)cc1
- Activity (Pseudomonas aeruginosa [11]): inactive
- IC50 [2]: 0.15 µM
- IC50 [3]: 1.1 µM

SMILES: CCN(CC)S(=O)(=O)c1cc(C(=O)Nc2ccc(F)cc2C(=O)O)ccc1Br
- IC50 [2]: 6.6 µM

SMILES: CCN(CC)S(=O)(=O)c1cc(C(=O)Nc2ccccc2C(=O)O)ccc1Br
- Activity (Pseudomonas aeruginosa [5]): Active
- Activity [7]: Active
- Activity [9]: Active
- IC50 [2]: 6.9 µM
- Activity [10]: Active

SMILES: CCN(Cc1ccccc1)S(=O)(=O)c1cccc(C(=O)Nc2ccccc2C(=O)O)c1
- Activity (Pseudomonas aeruginosa [4]): Active
- IC50 [2]: 16.5 µM
- IC50 [3]: 12.9 µM

SMILES: CCN(CC)S(=O)(=O)c1cc(C(=O)Nc2ccccc2C(=O)O)ccc1C
- IC50 [2]: 27.3 µM

SMILES: NS(=O)(=O)c1cccc(C(=O)Nc2ccccc2C(=O)O)c1
- IC50 [2]: 43.6 µM

SMILES: CN(C)S(=O)(=O)c1cccc(C(=O)Nc2ccccc2C(=O)O)c1
- inhibition (Pseudomonas aeruginosa [1]): 35%

SMILES: CCN(CC)C(=O)c1cccc(C(=O)Nc2ccccc2C(=O)O)c1
- inhibition (Pseudomonas aeruginosa [1]): < 10%

SMILES: CCN(CC)S(=O)(=O)c1cccc(C(=O)Nc2ccccc2C(N)=O)c1
- inhibition (Pseudomonas aeruginosa [1]): 21%

SMILES: CCCN(CCC)S(=O)(=O)c1cccc(C(=O)Nc2ccccc2C(=O)O)c1
- IC50 [2]: 5.4 µM

SMILES: CCc1ccc(C(=O)Nc2ccccc2C(=O)O)cc1S(=O)(=O)N(CC)CC
- inhibition (Pseudomonas aeruginosa [1]): 39%

SMILES: CCN(CC)S(=O)(=O)c1cccc(C(=O)Nc2ccc(-c3ccccc3)cc2C(=O)O)c1
- Activity (Pseudomonas aeruginosa [5]): Active
- Activity (Pseudomonas aeruginosa [6]): Active
- Activity [7]: Active
- Activity (Pseudomonas aeruginosa [8]): Active
- Kd [12]: 5.2 µM
- Activity [9]: Active
- IC50 [2]: 3 µM
- Activity [10]: Active
- IC50 [3]: 4.2 µM
- Activity (Pseudomonas aeruginosa [13]): Active

SMILES: CCN(CC)S(=O)(=O)c1cccc(C(=O)Nc2cccc(Cl)c2C(=O)O)c1
- IC50 [2]: 39 µM

SMILES: O=C(Nc1ccccc1C(=O)O)c1cccc(S(=O)(=O)N2CCCCCC2)c1
- IC50 [2]: 14.8 µM

SMILES: O=C(Nc1ccccc1C(=O)O)c1ccc(-c2ccccc2)c(Oc2ccccc2)c1
- IC50 [2]: 6.6 µM

SMILES: O=C(Nc1ccccc1C(=O)O)c1cccc(S(=O)(=O)N2CCCCC2)c1
- IC50 [2]: 14.4 µM

SMILES: O=[N+]([O-])c1ccccc1C(O)c1ccccc1 (configuration not stated)
- IC50 [2]: 3.2 µM

SMILES: O=C(Nc1ccccc1C(=O)O)c1cccc(S(=O)(=O)N2CCCC2)c1
- inhibition (Pseudomonas aeruginosa [1]): 47%

SMILES: CCN(CC)S(=O)(=O)c1cccc(C(=O)Nc2cccc(OC)c2C(=O)O)c1
- inhibition (Pseudomonas aeruginosa [1]): 44%

Second part, the molecule after the results:

- IC50 [2]: 26.2 µM
SMILES: CCN(CC)S(=O)(=O)c1cccc(C(=O)Nc2ccc(C#N)cc2C(=O)O)c1

- inhibition (Pseudomonas aeruginosa [1]): 13%
SMILES: CCN(CC)S(=O)(=O)c1cccc(C(=O)Nc2cccc(C(=O)O)c2)c1

- IC50 [2]: 8 µM
SMILES: CCN(CC)S(=O)(=O)c1cccc(C(=O)Nc2cc(F)ccc2C(=O)O)c1

- IC50 [2]: 1.5 µM
- IC50 [3]: 1.6 µM
SMILES: CCN(CC)S(=O)(=O)c1cccc(C(=O)Nc2ccc(-c3cccc(C(=O)O)c3)cc2C(=O)O)c1

- Activity (Pseudomonas aeruginosa [4]): Active
- IC50 [2]: 1.2 µM
- IC50 [3]: 1.1 µM
SMILES: CCN(CC)S(=O)(=O)c1cccc(C(=O)Nc2cccc(O)c2C(=O)O)c1

- IC50 [2]: 18.4 µM
SMILES: CCN(CC)S(=O)(=O)c1cccc(C(=O)Nc2ccc(C)cc2C(=O)O)c1

- IC50 [2]: 1.9 µM
SMILES: CCN(CC)S(=O)(=O)c1cccc(C(=O)Nc2ccc(-c3ccc(C(N)=O)cc3)cc2C(=O)O)c1

- inhibition (Pseudomonas aeruginosa [1]): 44%
SMILES: CCN(CC)S(=O)(=O)c1ccc(C(=O)Nc2ccccc2C(=O)O)cc1

- IC50 [2]: 13 µM
SMILES: CCN(CC)S(=O)(=O)c1ccc(C(=O)Nc2ccc(Br)cc2C(=O)O)cc1

- IC50 [2]: 12.4 µM
SMILES: CCN(CC)S(=O)(=O)c1cccc(C(=O)Nc2ccc(C(F)(F)F)cc2C(=O)O)c1

- IC50 [2]: 8.9 µM
SMILES: CCN(CC)S(=O)(=O)c1cccc(C(=O)Nc2ccc([N+](=O)[O-])cc2C(=O)O)c1

- IC50 [2]: 11.4 µM
SMILES: CCN(CC)S(=O)(=O)c1cccc(C(=O)Nc2ccc(F)cc2C(=O)O)c1

- Activity (Pseudomonas aeruginosa [4]): Active
- inhibition (Pseudomonas aeruginosa [1]): 69%
- IC50 [2]: 19.8 µM
- IC50 [3]: 19.4 µM
SMILES: CCN(CC)S(=O)(=O)c1cccc(C(=O)Nc2ccccc2C(=O)O)c1

- IC50 [2]: 6.3 µM
SMILES: CCN(CC)S(=O)(=O)c1cccc(C(=O)Nc2cc([N+](=O)[O-])ccc2C(=O)O)c1

- IC50 [2]: 2.7 µM
- IC50 [3]: 2 µM
SMILES: CCN(CC)S(=O)(=O)c1cccc(C(=O)Nc2ccc(-c3ccc(C(=O)O)cc3)cc2C(=O)O)c1

- IC50 [2]: 3.8 µM
SMILES: CCN(CC)S(=O)(=O)c1cccc(C(=O)Nc2ccc(-c3cccc(C(N)=O)c3)cc2C(=O)O)c1

- IC50 [2]: 9.4 µM
SMILES: CCN(CC)S(=O)(=O)c1cccc(C(=O)Nc2cc(Cl)ccc2C(=O)O)c1

Source: ChEMBL document CHEMBL2412976, “Structure optimization of 2-benzamidobenzoic acids as PqsD inhibitors for Pseudomonas aeruginosa infections and elucidation of binding mode by SPR, STD NMR, and molecular docking” (J Med Chem, 2013)
